Source: publication PMC7026418, “The kinase polypharmacology landscape of clinical PARP inhibitors” (Scientific Reports, 2020)
Read-outs that look alike come from different tables or passages of the source.

Tests used:
Test in all cases: biochemical
Set-up in all cases: DiscoveRx KINOMEscan active site-directed competition binding; percent of control kinase bound to immobilised ligand
[1] = target: T1, DCAMKL1 (Homo sapiens, UniProt O15075)
T1 construct: gene DCLK1
T1 sequence (O15075 1-740): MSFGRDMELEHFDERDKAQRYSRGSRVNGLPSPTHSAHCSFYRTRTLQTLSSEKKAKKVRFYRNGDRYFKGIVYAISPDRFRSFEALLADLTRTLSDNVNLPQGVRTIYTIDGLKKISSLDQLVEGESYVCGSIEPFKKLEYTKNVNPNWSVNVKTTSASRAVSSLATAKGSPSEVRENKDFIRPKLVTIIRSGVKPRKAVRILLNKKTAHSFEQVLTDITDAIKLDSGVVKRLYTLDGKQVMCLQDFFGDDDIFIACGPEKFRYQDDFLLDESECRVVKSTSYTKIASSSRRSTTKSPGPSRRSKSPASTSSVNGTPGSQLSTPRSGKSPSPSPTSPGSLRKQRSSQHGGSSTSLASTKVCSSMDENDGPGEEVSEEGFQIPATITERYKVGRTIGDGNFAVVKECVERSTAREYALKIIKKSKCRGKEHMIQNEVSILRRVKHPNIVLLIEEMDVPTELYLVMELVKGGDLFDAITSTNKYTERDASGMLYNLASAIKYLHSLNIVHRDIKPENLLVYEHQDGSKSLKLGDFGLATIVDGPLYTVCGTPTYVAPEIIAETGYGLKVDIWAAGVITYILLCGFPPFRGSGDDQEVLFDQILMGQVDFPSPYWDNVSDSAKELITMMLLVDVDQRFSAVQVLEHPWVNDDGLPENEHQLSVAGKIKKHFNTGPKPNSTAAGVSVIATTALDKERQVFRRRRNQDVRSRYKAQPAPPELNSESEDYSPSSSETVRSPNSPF

[2] = target: T2, JAK1(JH1domain-catalytic) (Homo sapiens, UniProt P23458)
T2 construct: JH1domain-catalytic

[3] = target: T3, ULK3 (Homo sapiens, UniProt Q6PHR2)
T3 sequence (Q6PHR2 1-472): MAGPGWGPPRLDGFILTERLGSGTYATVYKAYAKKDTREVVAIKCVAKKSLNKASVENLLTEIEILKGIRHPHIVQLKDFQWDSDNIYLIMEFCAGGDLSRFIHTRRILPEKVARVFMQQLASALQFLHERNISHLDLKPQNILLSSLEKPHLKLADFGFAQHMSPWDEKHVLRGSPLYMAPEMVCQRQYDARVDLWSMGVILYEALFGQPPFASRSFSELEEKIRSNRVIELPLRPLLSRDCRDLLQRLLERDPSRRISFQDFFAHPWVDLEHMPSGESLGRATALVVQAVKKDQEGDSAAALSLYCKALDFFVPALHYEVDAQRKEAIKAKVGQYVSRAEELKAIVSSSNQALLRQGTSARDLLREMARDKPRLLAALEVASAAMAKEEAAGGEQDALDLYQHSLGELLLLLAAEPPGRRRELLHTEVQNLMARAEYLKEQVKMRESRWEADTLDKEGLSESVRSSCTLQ

[4] = target: T4, MAK (Homo sapiens, UniProt P20794)
T4 sequence (P20794 1-623): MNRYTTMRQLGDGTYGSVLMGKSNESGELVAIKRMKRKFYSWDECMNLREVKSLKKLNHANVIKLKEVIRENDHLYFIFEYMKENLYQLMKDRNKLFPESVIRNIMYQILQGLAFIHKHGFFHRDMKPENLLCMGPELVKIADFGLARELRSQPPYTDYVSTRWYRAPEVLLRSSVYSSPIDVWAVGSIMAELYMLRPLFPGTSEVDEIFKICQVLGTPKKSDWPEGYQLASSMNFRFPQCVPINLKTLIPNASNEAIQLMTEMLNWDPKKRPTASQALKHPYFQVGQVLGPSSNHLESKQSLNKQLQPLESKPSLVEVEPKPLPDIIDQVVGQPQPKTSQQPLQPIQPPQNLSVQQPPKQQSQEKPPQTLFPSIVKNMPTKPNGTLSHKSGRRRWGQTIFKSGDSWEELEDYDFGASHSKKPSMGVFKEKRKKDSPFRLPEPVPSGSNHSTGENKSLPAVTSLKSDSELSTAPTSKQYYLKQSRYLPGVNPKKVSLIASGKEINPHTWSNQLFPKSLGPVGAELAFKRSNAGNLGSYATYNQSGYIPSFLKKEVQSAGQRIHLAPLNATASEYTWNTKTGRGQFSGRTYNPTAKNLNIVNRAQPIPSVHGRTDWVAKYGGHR

[5] = target: SRPK2 (Homo sapiens, UniProt P78362)
[6] = target: ACVR2A (Homo sapiens, UniProt P27037)
[7] = target: T5, PDPK1 (Homo sapiens, UniProt O15530)
T5 sequence (O15530 1-556): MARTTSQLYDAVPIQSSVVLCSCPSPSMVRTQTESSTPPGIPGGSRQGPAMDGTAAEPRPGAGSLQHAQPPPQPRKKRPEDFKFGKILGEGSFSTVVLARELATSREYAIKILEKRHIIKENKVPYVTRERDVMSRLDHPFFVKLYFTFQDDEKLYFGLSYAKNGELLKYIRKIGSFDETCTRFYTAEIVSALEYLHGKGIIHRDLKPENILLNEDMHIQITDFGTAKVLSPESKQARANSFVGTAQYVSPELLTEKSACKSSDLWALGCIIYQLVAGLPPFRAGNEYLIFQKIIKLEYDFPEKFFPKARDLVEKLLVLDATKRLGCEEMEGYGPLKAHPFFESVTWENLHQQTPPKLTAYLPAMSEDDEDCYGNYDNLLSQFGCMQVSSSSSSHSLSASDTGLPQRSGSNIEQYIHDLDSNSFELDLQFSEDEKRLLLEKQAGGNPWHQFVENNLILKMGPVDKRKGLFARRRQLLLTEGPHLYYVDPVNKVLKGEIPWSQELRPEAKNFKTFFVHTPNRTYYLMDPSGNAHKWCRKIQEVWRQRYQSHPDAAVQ

[8] = read-out: Talazoparib (BMN 673) / %Ctrl @ 10000nM
[9] = read-out: Olaparib / %Ctrl @ 10000nM
[10] = read-out: Rucaparib / %Ctrl @ 10000nM, binding competition, % of control
[11] = read-out: Niraparib (MK-4827) / %Ctrl @ 10000nM

T2 sequence (P23458 whole entry): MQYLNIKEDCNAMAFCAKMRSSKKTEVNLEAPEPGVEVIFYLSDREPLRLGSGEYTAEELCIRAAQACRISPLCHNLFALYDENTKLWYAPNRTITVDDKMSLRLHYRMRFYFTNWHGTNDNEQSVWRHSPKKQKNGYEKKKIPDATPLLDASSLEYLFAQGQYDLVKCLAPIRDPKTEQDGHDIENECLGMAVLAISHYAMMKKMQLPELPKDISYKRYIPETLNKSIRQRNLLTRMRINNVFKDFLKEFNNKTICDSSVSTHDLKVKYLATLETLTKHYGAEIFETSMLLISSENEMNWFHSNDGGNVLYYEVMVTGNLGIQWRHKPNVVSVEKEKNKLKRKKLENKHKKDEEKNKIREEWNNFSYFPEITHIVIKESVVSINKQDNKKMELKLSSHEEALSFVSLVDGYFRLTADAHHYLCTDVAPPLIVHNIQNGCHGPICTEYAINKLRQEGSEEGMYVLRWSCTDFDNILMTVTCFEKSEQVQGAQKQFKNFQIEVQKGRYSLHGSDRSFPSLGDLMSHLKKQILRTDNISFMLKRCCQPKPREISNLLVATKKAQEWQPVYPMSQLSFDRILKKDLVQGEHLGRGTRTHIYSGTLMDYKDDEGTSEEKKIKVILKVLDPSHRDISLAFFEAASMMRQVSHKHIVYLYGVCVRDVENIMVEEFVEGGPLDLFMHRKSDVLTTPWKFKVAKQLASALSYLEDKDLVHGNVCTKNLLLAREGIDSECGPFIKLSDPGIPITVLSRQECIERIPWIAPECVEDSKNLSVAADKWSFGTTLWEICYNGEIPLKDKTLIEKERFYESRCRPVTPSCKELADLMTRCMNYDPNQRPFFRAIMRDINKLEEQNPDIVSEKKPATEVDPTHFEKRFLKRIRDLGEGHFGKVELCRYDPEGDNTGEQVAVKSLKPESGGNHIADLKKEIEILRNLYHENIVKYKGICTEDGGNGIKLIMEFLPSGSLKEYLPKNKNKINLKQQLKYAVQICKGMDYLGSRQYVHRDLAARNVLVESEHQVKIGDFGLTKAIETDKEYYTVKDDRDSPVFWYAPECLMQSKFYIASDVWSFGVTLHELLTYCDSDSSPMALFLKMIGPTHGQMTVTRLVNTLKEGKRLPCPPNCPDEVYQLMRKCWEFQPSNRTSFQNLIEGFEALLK
Sequence of ACVR2A (P27037 whole entry): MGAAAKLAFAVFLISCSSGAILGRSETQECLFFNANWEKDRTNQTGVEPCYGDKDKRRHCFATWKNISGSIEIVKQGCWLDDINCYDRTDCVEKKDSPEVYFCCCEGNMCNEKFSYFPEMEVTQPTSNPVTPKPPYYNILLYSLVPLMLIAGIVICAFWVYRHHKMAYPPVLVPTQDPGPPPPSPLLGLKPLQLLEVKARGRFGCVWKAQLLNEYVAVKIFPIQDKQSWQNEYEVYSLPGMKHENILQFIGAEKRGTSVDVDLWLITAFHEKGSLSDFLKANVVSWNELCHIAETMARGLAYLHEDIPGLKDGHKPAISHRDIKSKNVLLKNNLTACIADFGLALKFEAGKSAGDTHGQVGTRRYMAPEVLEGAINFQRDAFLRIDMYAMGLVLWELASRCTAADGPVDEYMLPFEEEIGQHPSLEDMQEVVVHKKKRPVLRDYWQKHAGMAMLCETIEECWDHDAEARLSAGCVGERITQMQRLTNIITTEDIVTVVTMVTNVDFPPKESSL
Sequence of SRPK2 (P78362 whole entry): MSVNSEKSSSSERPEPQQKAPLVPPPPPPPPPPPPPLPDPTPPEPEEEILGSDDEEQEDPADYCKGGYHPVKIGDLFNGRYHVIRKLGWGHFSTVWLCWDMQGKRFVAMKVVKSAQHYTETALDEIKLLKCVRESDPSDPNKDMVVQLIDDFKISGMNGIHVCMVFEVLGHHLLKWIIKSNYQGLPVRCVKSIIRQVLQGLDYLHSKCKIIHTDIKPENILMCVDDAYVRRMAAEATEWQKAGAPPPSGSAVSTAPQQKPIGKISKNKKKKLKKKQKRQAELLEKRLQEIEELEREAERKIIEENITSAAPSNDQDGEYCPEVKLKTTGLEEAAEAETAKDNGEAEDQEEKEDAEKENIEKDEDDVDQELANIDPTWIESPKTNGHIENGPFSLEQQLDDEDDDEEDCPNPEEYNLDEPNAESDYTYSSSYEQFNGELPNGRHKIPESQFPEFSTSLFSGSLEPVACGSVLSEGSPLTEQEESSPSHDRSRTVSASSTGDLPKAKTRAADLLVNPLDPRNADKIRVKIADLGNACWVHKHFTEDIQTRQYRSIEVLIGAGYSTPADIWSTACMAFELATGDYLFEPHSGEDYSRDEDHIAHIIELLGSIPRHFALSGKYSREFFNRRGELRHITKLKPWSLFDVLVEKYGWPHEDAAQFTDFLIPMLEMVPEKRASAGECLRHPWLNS

Compound: Cn1ncnc1[C@H]1c2n[nH]c(=O)c3cc(F)cc(c23)N[C@@H]1c1ccc(F)cc1 [Talazoparib]
- percent of control binding at 10 µM [1, 8]: 90%
- percent of control binding at 10 µM [2, 8]: 100%
- percent of control binding at 10 µM [3, 8]: 84%
- percent of control binding at 10 µM [4, 8]: 93%
- percent of control binding at 10 µM [5, 8]: 100%
- percent of control binding at 10 µM [6, 8]: 100%
- percent of control binding at 10 µM [7, 8]: 85%

Compound: O=C(c1cc(Cc2n[nH]c(=O)c3ccccc23)ccc1F)N1CCN(C(=O)C2CC2)CC1 [Olaparib]
- percent of control binding at 10 µM [1, 9]: 100%
- percent of control binding at 10 µM [2, 9]: 81%
- percent of control binding at 10 µM [3, 9]: 80%
- percent of control binding at 10 µM [4, 9]: 77%
- percent of control binding at 10 µM [5, 9]: 86%
- percent of control binding at 10 µM [6, 9]: 95%
- percent of control binding at 10 µM [7, 9]: 100%

Compound: CNCc1ccc(-c2[nH]c3cc(F)cc4c3c2CCNC4=O)cc1 [Rucaparib]
- percent of control binding at 10 µM [1, 10]: 78%
- percent of control binding at 10 µM [2, 10]: 100%
- percent of control binding at 10 µM [3, 10]: 70%
- percent of control binding at 10 µM [4, 10]: 81%
- percent of control binding at 10 µM [5, 10]: 68%
- percent of control binding at 10 µM [6, 10]: 100%
- percent of control binding at 10 µM [7, 10]: 97%

Compound: NC(=O)c1cccc2cn(-c3ccc([C@@H]4CCCNC4)cc3)nc12 [Niraparib]
- percent of control binding at 10 µM [1, 11]: 89%
- percent of control binding at 10 µM [2, 11]: 100%
- percent of control binding at 10 µM [3, 11]: 100%
- percent of control binding at 10 µM [4, 11]: 56%
- percent of control binding at 10 µM [5, 11]: 100%
- percent of control binding at 10 µM [6, 11]: 99%
- percent of control binding at 10 µM [7, 11]: 80%
